Results taken from patent publication US11891394B1, “Pyrrolo[2,3-c][1,6]naphthyridine-8-carboxylic acid compounds as CK2 inhibitors” (KING FAISAL UNIVERSITY, priority 2023, dated 2024).

Columns and labels:
[1] = tested on: PC3 (prostate); assay: In vitro cytotoxic activity (MTT) assay, PC3; format: cell-based; conditions: Homo sapiens, exposed 96 hours, read-out: IC50, 50% inhibition of cell proliferation
Procedure: (§1) Compounds 1-16 were screened for their in vitro cytotoxic activity utilizing a 3-(4,5-dimethyl-thiazol-2-yl)-2,5-diphenyltetrazolium bromide (MTT) assay against selected cancer human cell lines consisting of PC3 (prostate), HCT116 (colon), A375 (melanoma), H1299 (lung), MIAPaCa-2 (pancreas), HL60 (leukemia), MCF7 (breast), MDA-MB-231 (breast) (T. Mosmann, J. Immunol. Meth., 1983, 65, 55-63). The cells were cultured at 37° C. in RMPI1640 medium supplemented with 10% fetal bovine serum, 50 IU/mL penicillin, and 50 μg/mL streptomycin in a 5% CO2 incubator. All cells were sub-cultured 3 times/week by trypsinisation. Viable cells were seeded and allowed to adhere for 12 h before a test drug was added in 96-well plates at an initial density of 1.0×10^5 cells/mL. Tumour cell lines were separately exposed to various concentrations of the tested compounds followed by incubation at a temperature of 37° C. during 96 h inside a medium of fresh RMPI 1640. Cells were subsequently incubated at 37° C. using MTT at 0.5 mg/mL during 4 h. After removal of supernatant, formazan crystals were dissolved in isopropanol and the optical density was measured at 570 nm. CX-4945 was used as a positive control.

[2] = tested on: HCT116 (colon); assay: In vitro cytotoxic activity (MTT) assay, HCT116; format: cell-based; conditions: Homo sapiens, HCT-116, exposed 96 hours, read-out: IC50, 50% inhibition of cell proliferation
Procedure: as §1

[3] = tested on: A375 (melanoma); assay: In vitro cytotoxic activity (MTT) assay, A375; format: cell-based; conditions: Homo sapiens, A-375, exposed 96 hours, read-out: IC50, 50% inhibition of cell proliferation
Procedure: as §1

[4] = tested on: H1299 (lung); assay: In vitro cytotoxic activity (MTT) assay, H1299; format: cell-based; conditions: Homo sapiens, NCI-H1299, exposed 96 hours, read-out: IC50, 50% inhibition of cell proliferation
Procedure: as §1

[5] = tested on: MIAPaCa-2 (pancreas); assay: In vitro cytotoxic activity (MTT) assay, MIAPaCa-2; format: cell-based; conditions: Homo sapiens, MIA PaCa-2, exposed 96 hours, read-out: IC50, 50% inhibition of cell proliferation
Procedure: as §1

[6] = tested on: HL60 (leukemia); assay: In vitro cytotoxic activity (MTT) assay, HL60; format: cell-based; conditions: Homo sapiens, HL-60, exposed 96 hours, read-out: IC50, 50% inhibition of cell proliferation
Procedure: as §1

[7] = tested on: MCF7 (breast); assay: In vitro cytotoxic activity (MTT) assay, MCF7; format: cell-based; conditions: Homo sapiens, exposed 96 hours, read-out: IC50, 50% inhibition of cell proliferation
Procedure: as §1

[8] = tested on: MDA-MB-231 (breast); assay: In vitro cytotoxic activity (MTT) assay, MDA-MB-231; format: cell-based; conditions: Homo sapiens, exposed 96 hours, read-out: IC50, 50% inhibition of cell proliferation
Procedure: as §1

[9] = target: T1, recombinant human CK2 (RRββ-holoenzyme) (Homo sapiens, UniProt P68400); assay: CK2 Kinase Assay (33P-ATP, peptide RRRDDDSDDD); format: biochemical; conditions: final ATP 15 μM, 10 min at 30° C.; read-out: IC50, protein kinase CK2 activity
T1 construct: purchased Millipore
Procedure: CK2 Kinase Assay was conducted using the protocol as described in Pierre F. et al; J. Med. Chem. 2011, 54, 635-654. The tested compounds in aqueous solution were added at a volume of 10 μL to a reaction mixture comprising 10 μL of assay dilution buffer (ADB; 20 mM MOPS, pH 7.2, 25 mM β-glycerol phosphate, 5 mM EGTA, 1 mM sodium orthovanadate, and 1 mM dithiothreitol), 10 μL of substrate peptide (RRRDDDSDDD, dissolved in ADB at a concentration of 1 mM), 10 μL of recombinant human CK2 (RRββ-holoenzyme, 25 ng dissolved in ADB; Millipore). Reactions were initiated by the addition of 10 μL of ATP solution (90% 75 mMMgCl2, 75 μM ATP (final ATP concentration: 15 μM) dissolved in ADB; 10% [γ-33P] ATP (stock 1 mCi/100 μL; 3000 Ci/mmol (Perkin-Elmer) and maintained for 10 min at 30° C. The reactions were quenched with 100 μL of 0.75% phosphoric acid and then transferred to and filtered through a phosphor cellulose filter plate (Millipore). After washing each well five times with 0.75% phosphoric acid, the plate was dried under vacuum for 5 min and, following the addition of 15 μL of scintillation fluid to each well, the residual radioactivity was measured using a Wallac […] counter. The IC50 values were derived from eight concentrations of test inhibitors.

T1 sequence (P68400 whole entry): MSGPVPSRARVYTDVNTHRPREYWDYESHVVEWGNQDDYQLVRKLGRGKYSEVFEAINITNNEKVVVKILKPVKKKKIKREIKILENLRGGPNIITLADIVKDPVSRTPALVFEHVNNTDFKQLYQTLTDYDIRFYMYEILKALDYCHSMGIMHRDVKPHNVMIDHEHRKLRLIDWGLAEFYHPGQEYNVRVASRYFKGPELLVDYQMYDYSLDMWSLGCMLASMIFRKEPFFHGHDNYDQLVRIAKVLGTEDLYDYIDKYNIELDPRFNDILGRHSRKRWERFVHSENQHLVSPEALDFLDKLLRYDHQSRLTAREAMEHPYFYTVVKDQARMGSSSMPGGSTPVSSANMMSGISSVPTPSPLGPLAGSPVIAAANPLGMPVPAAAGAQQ
T1 sequence (P67870 whole entry partner): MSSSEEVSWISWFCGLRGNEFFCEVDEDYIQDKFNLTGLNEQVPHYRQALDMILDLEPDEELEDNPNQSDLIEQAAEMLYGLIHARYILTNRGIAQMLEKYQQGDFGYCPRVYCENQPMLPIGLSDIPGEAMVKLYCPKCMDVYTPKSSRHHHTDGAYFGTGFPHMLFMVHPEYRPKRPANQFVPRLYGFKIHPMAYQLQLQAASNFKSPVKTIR

O=C(O)c1cc2c([nH]1)c(Nc1cccc(Cl)c1)nc1ccncc12 [Compound 1, 6-((3-chlorophenyl)amino)-7H-pyrrolo[2,3-c][1,6]naphthyridine-8-carboxylic acid] gave an IC50 [1] of 1800 nM, an IC50 [2] of 1600 nM and an IC50 [3] of 2500 nM. It also gave an IC50 [4] of 1100 nM, an IC50 [5] of 1300 nM and an IC50 [6] of 2800 nM. For the same molecule, the IC50 [7] was 3900 nM, the IC50 [8] was 3200 nM and the IC50 [9] was 21 nM.
